The source of these data is patent US5459270A, “Azacyclic compounds, processes for their preparation and pharmaceutical compositions containing them” (Merck Sharp & Dohme Limited, priority 1991, dated 1995).

pIC50: −log10 of the molar value. Counter-ions that a name gives are not always drawn.

One test deals with human neurokinin-1-receptor (NK1R) (Homo sapiens, UniProt P25103). Put plainly: biochemical. The following applies: 1 h, read-out: % @ 300 nM (in column IC50 @ NKIR). Type of test: binding. On the procedure: To express the cloned human neurokinin-1-receptor (NK1R) transiently in COS, the cDNA for the human NK1R was cloned into the expression vector pCDM9 which was derived from pCDM8 (INVITROGEN) by inserting the ampicillin resistance gene (nucleotide 1973 to 2964 from BLUESCRIPT SK+ (trademark, […], La Jolla, Calif., USA)) into the Sac II site. Transfection of 20 ug of the plasmid DNA into 10 million COS cells was achieved by electroporation in 800 μl of transfection buffer (135 mM NaCl, 1.2 mM CaCl2, 1.2 mM MgCl2, 2.4 mM K2 HPO4, 0.6 mM KH2 PO4, 10 mM glucose, 10 mM N-2-hydroxyethyl-piperazine-N'-2-ethane sulphonic acid (HEPES) pH 7.4) at 260 V and 950 μF using the IBI GENEZAPPER (trademark IBI, New Haven, Conn., USA). The cells were incubated in 10% fetal calf serum, 2 mM glutamine, 100 U/ml penicillin-streptomycin, and 90% DMEM media (GIBCO, Grand Island, N.Y., USA) in 5% CO2 at 37° C. for three days before the binding assay.
Chain of human neurokinin-1-receptor (NK1R) (P25103 whole entry): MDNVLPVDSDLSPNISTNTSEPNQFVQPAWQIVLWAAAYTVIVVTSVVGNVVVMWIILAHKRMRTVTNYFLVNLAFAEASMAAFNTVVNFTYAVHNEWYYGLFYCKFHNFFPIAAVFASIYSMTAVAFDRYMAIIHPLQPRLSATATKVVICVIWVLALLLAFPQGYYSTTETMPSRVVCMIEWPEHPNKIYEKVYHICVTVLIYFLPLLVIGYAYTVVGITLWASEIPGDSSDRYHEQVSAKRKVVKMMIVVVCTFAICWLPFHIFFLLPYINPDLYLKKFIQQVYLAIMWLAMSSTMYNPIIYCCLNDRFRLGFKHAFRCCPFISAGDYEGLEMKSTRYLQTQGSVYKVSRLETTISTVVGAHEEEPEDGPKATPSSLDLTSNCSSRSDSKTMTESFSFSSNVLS
To establish a stable cell line expressing cloned human NK1R, the cDNA was subcloned into the vector pRcCMV (INVITROGEN). Transfection of 20 μg of the plasmid DNA into CHO cells was achieved by electroporation in 800 μl of transfection buffer supplemented with 0.625 mg/ml Herring sperm DNA at 300 V and 950 μF using the IBI GENEZAPPER (IBI). The transfected cells were incubated in CHO media [10% fetal calf serum, 100 U/ml penicillin-streptomycin, 2 mM glutamine, 1/500 hypoxanthine-thymidine (ATCC), 90% IMDM media (JRH BIOSCIENCES, Lenexa, Kans., USA), 0.7 mg/ml G418 (GIBCO)] in 5% CO2 at 37° C. until colonies were visible. Each colony was separated and propagated. The cell clone with the highest number of human NK1R was selected for subsequent applications such as drug screening.
The binding assay of human NK1R expressed in either COS or CHO cells is based on the use of ^125 I-substance P (^125 I-SP, from DU PONT, Boston, Mass.) as a radioactively labeled ligand which competes with unlabeled substance P or any other ligand for binding to the human NK1R. […] The tubes were incubated at 4° C. or at room temperature for 1 hour with gentle shaking. The bound radioactivity was separated from unbound radioactivity by GF/C filter (BRANDEL, Gaithersburg, Md.) which was pre-wetted with 0.1% polyethylenimine. The filter was washed with 3 ml of wash buffer (50 mM Tris pH 7.5, 5 mM MnCl2, 50 mM NaCl) three times and its radioactivity was determined by gamma counter.
In the case of `N#Cc1cccc(CO[C@H]2CCCN[C@H]2c2ccccc2)c1` (relative stereo) [Example 53, cis-3((3-cyanophenyl)methyloxy)-2-phenylpiperidine hydrochloride salt], the inhibition at 0.3 µM was 40%.

The test is the same for the next values; noted with them: 1 h, read-out: % @ 1 μM (in column IC50 @ NKIR).
For `c1ccc(CO[C@H]2CCCN[C@H]2c2ccccc2)cc1` (relative stereo) [Example 34, cis-2-Phenyl-3-(phenylmethyloxy)piperidine oxalate salt], the inhibition at 1 µM was found to be 53%.

The same test, now with this note: 1 h, read-out: % @ 1 μM (in column IC50 @ NKIR); 1 μM; human NK1R in COS or CHO cells, 125I-substance P.
Turning to `Cc1cc(C)cc(CO[C@@H]2CCCN[C@H]2c2ccccc2)c1` (relative stereo) [Example 12, trans-((3.5-Dimethylphenyl)methyloxy)-2-phenyl piperidine hydrochloride salt], the inhibition at 1 µM was determined as 46%.

The test is the same for the next values; noted with them: IC50 @ NKIR, displacement of 125I-substance P; human NK1R in COS or CHO cells.
Usually pIC50 stands for the negative decadic logarithm of the IC50, by convention in mol/L. In the case of `Cc1cc(CO[C@H]2CCCN(C(=O)OC(C)(C)C)[C@H]2c2ccccc2)cc([Si](C)(C)C)c1` [Example 33], the pIC50 was under 6.52.

Still in this test, the particulars now being: displacement of 125I-substance P; human NK1R in COS or CHO cells; read-out: IC50 @ NKIR.
Consider `NC(=O)C(=O)N1CCC[C@H](OCc2cc(C(F)(F)F)cc(C(F)(F)F)c2)[C@@H]1c1ccccc1` (relative stereo) [Example 38], for which the pIC50 is 6.82.
For `N#CCN1CCC[C@H](OCc2cc(C(F)(F)F)cc(C(F)(F)F)c2)[C@@H]1c1ccccc1` (relative stereo) [Example 40, cis-3 ((3,5Bis(trifluoromethyl)phenyl)methyloxy)-1-cyanomethyl-2-phenylpiperidinium hydrochloride], the pIC50 is 7.82.
With `FC(F)(F)c1cc(CO[C@H]2CCCN[C@H]2c2ccccc2)cc(C(F)(F)F)c1` [Example 11, (-)-cis-3-((3,5-Bis(trifluoromethyl)phenyl)methyloxy)-2-phenyl piperidine hydrochloride salt], the pIC50 is 6.46.
The same measure, in the same setting: for `CC(C)(C)c1cc(CO[C@H]2CCCN[C@H]2c2ccccc2)cc(C(C)(C)C)c1` (relative stereo) [Example 35, cis-3-((3,5.-Di-t-butylphenyl)methyloxy)-2-phenylpiperidine oxalate salt] the value was 7.00; for `O=C(CN1CCC[C@H](OCc2cc(C(F)(F)F)cc(C(F)(F)F)c2)[C@@H]1c1ccccc1)NC1CC1` [Example 57, (2S,3S)-3-((3,5-Bis(trifluoromethyl)phenyl)methyloxy)-1-((N-cyclopropyl)-2-phenylpiperidinium hydrochloride], 8.60.
With `FC(F)(F)c1cc(CO[C@@H]2CCCN[C@H]2c2ccccc2)cc(C(F)(F)F)c1` (relative stereo) [Example 13, trans-3-((3,5-Bis(trifluoromethyl)phenyl)methyloxy)-2-phenyl piperidine hydrochloride salt], the pIC50 is 6.52.
On the same count and under the same terms, in the case of `Cc1cc(I)cc(CO[C@H]2CCCN[C@H]2c2ccccc2)c1` [Example 36] it was 9.30; in that of `COC(=O)CCN1CCC[C@H](OCc2cc(C(F)(F)F)cc(C(F)(F)F)c2)[C@@H]1c1ccccc1` (relative stereo) [Example 29, cis-3-((3,5-Bis(trifluoromethyl)phenyl)methyloxy)-1-(2-carbomethoxy)ethyl-2-phenylpiperidine], 7.40; in that of `CN1CCC[C@H](OCc2cc(C(F)(F)F)cc(C(F)(F)F)c2)[C@@H]1c1ccccc1` [Example 10, (+)-cis-3-((3,5-Bis(trifluoromethyl)phenyl)methyloxy)-1-methyl-2-phenylpiperidine], 7.70.
Consider `NC(CN1CCC[C@H](OCc2cc(C(F)(F)F)cc(C(F)(F)F)c2)[C@@H]1c1ccccc1)=NO` (relative stereo) [Example 39], for which the pIC50 was 9.05.
`FC(F)(F)c1cc(CO[C@H]2CCCN[C@H]2c2ccccc2)cc(C(F)(F)F)c1` [Example 5, (+)-cis-3((3,5-Bis(trifluoromethyl)phenyl)methyloxy)-2-phenylpiperidine hydrochloride salt]: the pIC50 was 9.00.
For `Clc1cc(Cl)cc(CO[C@H]2CCCN[C@H]2c2ccccc2)c1` (relative stereo) [Example 47, cis-3-((3,5-Dichlorophenyl)methyloxy)-2-phenylpiperidine hydrochloride salt], the pIC50 was 8.70.
For `CC1(OCc2cc(C(F)(F)F)cc(C(F)(F)F)c2)CCCNC1c1ccccc1` (centres unmarked) [Example 48, 3-((3,5-Bis(trifluoromethyl)phenyl)methyloxy)-3-methyl-2-phenylpiperidine oxalate salt], the pIC50 is 7.35.
`Cc1cc(C)cc(CO[C@H]2CCN(C)[C@H]2C(c2ccccc2)c2ccccc2)c1` (relative stereo) [Example 1, cis 2-(Diphenylmethyl)-3-(3,5-dimethylbenzyloxy)-1-methylpyrrolidine]: the pIC50 was 7.85.
Regarding `Cc1cc(C)cc(CO[C@H]2CCCN[C@H]2c2ccccc2)c1` (relative stereo) [Example 2, cis-3-((3,5-Dimethylphenyl)methyloxy)-2-phenylpiperidine hydrochloride salt], the pIC50 was over 8.52.
`O=C1CC[C@H](OCc2cc(C(F)(F)F)cc(C(F)(F)F)c2)[C@H](c2ccccc2)N1` (relative stereo) [Example 28, cis-3-((3,5-Bis(trifluoromethyl)phenyl)methyloxy)-6-keto-2-phenyl piperidine]: the pIC50 is 7.82.
On to `FC(F)(F)c1cc(CO[C@H]2CCCN[C@H]2c2ccc(Cl)cc2)cc(C(F)(F)F)c1` (relative stereo) [Example 23, cis-3-((3,5-Bis(trifluoromethyl)phenyl)methyloxy)-2-(4-chlorophenyl)piperidine hydrochloride salt], for which the pIC50 was 7.46.
Take `CCN(CC)C(=O)CN1CCCC(OCc2cc(C(F)(F)F)cc(C(F)(F)F)c2)C1c1ccccc1` (single isomer, unassigned) [Example 43, cis-3-((3,5-Bis(trifluoromethyl)phenyl)methyloxy-1-(N,N-diethylcarboxamido)methyl-2-phenylpiperidinium hydrochloride]: the pIC50 is 8.85.
Consider “cis-3-((3,5-Bis(trifluoromethyl)phenyl)methyloxy-1-(N-benzylcarboxamido)methyl-2-phenyl piperidinium hydrochloride [Example 49]”, for which the pIC50 was 7.70.
For the compound `COc1ccc(CN2C(=O)CC[C@H](OCc3cc(C(F)(F)F)cc(C(F)(F)F)c3)[C@@H]2c2ccccc2)cc1` (relative stereo) [Example 27, cis-3-((3,5-Bis(trifluoromethyl)phenyl)methyloxy)-6-keto1-(4-methoxybenzyl)-2-phenyl piperidine], the pIC50 is 6.80.
For `OCC1CC[C@H](OCc2cc(C(F)(F)F)cc(C(F)(F)F)c2)[C@H](c2ccccc2)N1` (some centres unmarked) [Example 55], the pIC50 was 8.70.
For the compound `FC(F)(F)c1cc(CO[C@H]2CCCN[C@H]2c2cccs2)cc(C(F)(F)F)c1` (relative stereo) [Example 25, cis-3-((3,5-Bis(trifluoromethyl)phenyl)methyloxy)-2-thienyl piperidine hydrochloride salt], the pIC50 is 7.15.
In the case of `O=CN1CCC[C@H](OCc2cc(C(F)(F)F)cc(C(F)(F)F)c2)[C@@H]1c1ccccc1` [Example 16, (2S,3S)-1-Formyl-3-((3,5-bis(trifluoromethyl)phenyl)methyloxy)-2-phenyl piperidine], the pIC50 is 7.10.
Regarding `CC(C)(C)NC(=O)CN1CCC[C@H](OCc2cc(C(F)(F)F)cc(C(F)(F)F)c2)[C@@H]1c1ccccc1` [Example 56, (2S,3S)-3-((3,5-Bis(trifluoromethyl)phenyl)methyloxy-1-((N-t-butyl)carboxamidomethyl)-2-phenylpiperidinium hydrochloride], the pIC50 was 7.60.
Take `CC1CC[C@H](OCc2cc(C(F)(F)F)cc(C(F)(F)F)c2)[C@H](c2ccccc2)N1` (stereo partly drawn) [Example 20, cis-3-(3,5-Bis(trifluoromethyl)phenyl)methyloxy-6-methyl-2-phenyl piperidinium hydrochloride]: the pIC50 was 8.70.
